From ChEMBL document CHEMBL4613212, “Insights of synthetic analogues of anti-leprosy agents” (Bioorg Med Chem, 2019) come the findings set out here.

Molecules are shown by their SMILES. In brackets after ≈: the same amount, converted by molar mass.

In test [1] the test system is Mycobacterium leprae. Briefly: Anti-leprotic activity against Mycobacterium leprae primary cultures at 4 weeks assessed as ATP level per 10^7 cells at 5.0 mg/L measured by bioluminescence assay (reference value: 314 +/- 46 pg). The class given is functional.
For test [2], the system named is Mycobacterium leprae. Kind of test: Anti-leprotic activity against Mycobacterium leprae subcultures at 4 weeks assessed as [3H]thymidine uptake per 5 times 10^7 cells at 15.0 mg/L (reference value: 1.28 +/- 0.14 pmol). The class given is functional.
Test [3] has as its system Mycobacterium leprae. Kind of test: Anti-leprotic activity against Mycobacterium leprae primary cultures at 4 weeks assessed as ATP level per 10^7 cells at 10.0 mg/L measured by bioluminescence assay (reference value: 314 +/- 46 pg). In kind it is functional.
In test [4] the test system is Mycobacterium leprae. Kind of test: Anti-leprotic activity against Mycobacterium leprae subcultures at 4 weeks assessed as ATP level per 10^7 cells at 10.0 mg/L measured by bioluminescence assay (reference value: 462 +/- 64 pg). The class given is functional.
Test [5] relates to Mycobacterium leprae. Kind of test: Anti-leprotic activity against Mycobacterium leprae primary cultures at 4 weeks assessed as [3H]thymidine uptake per 5 times 10^7 cells at 5.0 mg/L (reference value: 0.95 +/- 0.01 pmol). In kind it is functional.
The subject of test [6] is Mycobacterium leprae. Briefly: Antimicrobial activity against Mycobacterium leprae. The class given is functional.
Test [7] has as its system Mycobacterium leprae. Kind of test: Anti-leprotic activity against Mycobacterium leprae subcultures at 4 weeks assessed as [3H]thymidine uptake per 5 times 10^7 cells at 5.0 mg/L (reference value: 1.28 +/- 0.14 pmol). In kind it is functional.
The test system of test [8] is Mycobacterium leprae. Briefly: Anti-leprotic activity against Mycobacterium leprae primary cultures at 4 weeks assessed as ATP level per 10^7 cells at 15.0 mg/L measured by bioluminescence assay (reference value: 314 +/- 46 pg). The class given is functional.
Test [9] concerns Mycobacterium leprae. Kind of test: Anti-leprotic activity against Mycobacterium leprae primary cultures at 4 weeks assessed as [3H]thymidine uptake per 5 times 10^7 cells at 10.0 mg/L (reference value: 0.95 +/- 0.01 pmol). The class given is functional.
The subject of test [10] is Mycobacterium leprae. Briefly: Anti-leprotic activity against Mycobacterium leprae subcultures at 4 weeks assessed as ATP level per 10^7 cells at 15.0 mg/L measured by bioluminescence assay (reference value: 462 +/- 64 pg). The class given is functional.
In test [11] the test system is Mycobacterium leprae. Kind of test: Anti-leprotic activity against Mycobacterium leprae subcultures at 4 weeks assessed as [3H]thymidine uptake per 5 times 10^7 cells at 10.0 mg/L (reference value: 1.28 +/- 0.14 pmol). The class given is functional.
Test [12] relates to Mycobacterium leprae. Briefly: Anti-leprotic activity against Mycobacterium leprae primary cultures at 4 weeks assessed as [3H]thymidine uptake per 5 times 10^7 cells at 15.0 mg/L (reference value: 0.95 +/- 0.01 pmol). In kind it is functional.
In test [13] the test system is Mycobacterium leprae. Briefly: Anti-leprotic activity against Mycobacterium leprae subcultures at 4 weeks assessed as ATP level per 10^7 cells at 5.0 mg/L measured by bioluminescence assay (reference value: 462 +/- 64 pg). In kind it is functional.
The subject of test [14] is Mycobacterium leprae. Kind of test: Anti-leprotic activity against rifampicin-susceptible Mycobacterium leprae subcultures at 4 weeks assessed as [3H]thymidine uptake per 5 times 10^7 cells at 0.05 mg/L incubated for 24 hrs (reference value: 1.41 +/- 0.20 pmol). In kind it is functional.
In test [15] the test system is Mycobacterium leprae. Kind of test: Anti-leprotic activity against rifampicin-susceptible Mycobacterium leprae primary cultures at 4 weeks assessed as ATP level per 10^7 cells at 0.025 mg/L measured by bioluminescence assay (reference value: 332 +/- 46 pg). The class given is functional.
Test [16] relates to Mycobacterium leprae. Briefly: Anti-leprotic activity against rifampicin-susceptible Mycobacterium leprae primary cultures at 4 weeks assessed as [3H]thymidine uptake per 5 times 10^7 cells at 0.05 mg/L incubated for 24 hrs (reference value: 1.05 +/- 0.16 pmol). The class given is functional.
Test [17] concerns Mycobacterium leprae. Briefly: Anti-leprotic activity against rifampicin-susceptible Mycobacterium leprae subcultures at 4 weeks assessed as ATP level per 10^7 cells at 0.05 mg/L measured by bioluminescence assay (reference value: 425 +/- 64 pg). In kind it is functional.
Test [18] has as its system Mycobacterium leprae. Briefly: Anti-leprotic activity against rifampicin-susceptible Mycobacterium leprae subcultures at 4 weeks assessed as ATP level per 10^7 cells at 0.1 mg/L measured by bioluminescence assay (reference value: 425 +/- 64 pg). The class given is functional.
In test [19] the test system is Mycobacterium leprae. Briefly: Anti-leprotic activity against rifampicin-susceptible Mycobacterium leprae subcultures at 4 weeks assessed as ATP level per 10^7 cells at 0.2 mg/L measured by bioluminescence assay (reference value: 425 +/- 64 pg). In kind it is functional.
Test [20] concerns Mycobacterium leprae. Kind of test: Anti-leprotic activity against rifampicin-susceptible Mycobacterium leprae subcultures at 4 weeks assessed as [3H]thymidine uptake per 5 times 10^7 cells at 0.1 mg/L incubated for 24 hrs (reference value: 1.41 +/- 0.20 pmol). The class given is functional.
In test [21] the test system is Mycobacterium leprae. Briefly: Anti-leprotic activity against rifampicin-susceptible Mycobacterium leprae subcultures at 4 weeks assessed as [3H]thymidine uptake per 5 times 10^7 cells at 0.025 mg/L incubated for 24 hrs (reference value: 1.41 +/- 0.20 pmol). In kind it is functional.
The subject of test [22] is Mycobacterium leprae. Kind of test: Anti-leprotic activity against rifampicin-susceptible Mycobacterium leprae primary cultures at 4 weeks assessed as [3H]thymidine uptake per 5 times 10^7 cells at 0.2 mg/L incubated for 24 hrs (reference value: 1.05 +/- 0.16 pmol). The class given is functional.
Test [23] has as its system Mycobacterium leprae. Briefly: Anti-leprotic activity against rifampicin-susceptible Mycobacterium leprae primary cultures at 4 weeks assessed as ATP level per 10^7 cells at 0.2 mg/L measured by bioluminescence assay (reference value: 332 +/- 46 pg). In kind it is functional.
Test [24] relates to Mycobacterium leprae. Briefly: Anti-leprotic activity against rifampicin-susceptible Mycobacterium leprae primary cultures at 4 weeks assessed as [3H]thymidine uptake per 5 times 10^7 cells at 0.025 mg/L incubated for 24 hrs (reference value: 1.05 +/- 0.16 pmol). In kind it is functional.
Test [25] relates to Mycobacterium leprae. Briefly: Anti-leprotic activity against rifampicin-susceptible Mycobacterium leprae primary cultures at 4 weeks assessed as [3H]thymidine uptake per 5 times 10^7 cells at 0.1 mg/L incubated for 24 hrs (reference value: 1.05 +/- 0.16 pmol). The class given is functional.
Test [26] deals with Mycobacterium leprae. Briefly: Anti-leprotic activity against rifampicin-susceptible Mycobacterium leprae subcultures at 4 weeks assessed as ATP level per 10^7 cells at 0.025 mg/L measured by bioluminescence assay (reference value: 425 +/- 64 pg). In kind it is functional.
Test [27] concerns Mycobacterium leprae. Kind of test: Anti-leprotic activity against rifampicin-susceptible Mycobacterium leprae primary cultures at 4 weeks assessed as ATP level per 10^7 cells at 0.1 mg/L measured by bioluminescence assay (reference value: 332 +/- 46 pg). The class given is functional.
In test [28] the test system is Mycobacterium leprae. Kind of test: Anti-leprotic activity against rifampicin-susceptible Mycobacterium leprae primary cultures at 4 weeks assessed as ATP level per 10^7 cells at 0.05 mg/L measured by bioluminescence assay (reference value: 332 +/- 46 pg). The class given is functional.
The subject of test [29] is Mycobacterium leprae. Briefly: Anti-leprotic activity against rifampicin-susceptible Mycobacterium leprae subcultures at 4 weeks assessed as [3H]thymidine uptake per 5 times 10^7 cells at 0.2 mg/L incubated for 24 hrs (reference value: 1.41 +/- 0.20 pmol). In kind it is functional.
Test [30] has as its system Mycobacterium tuberculosis. Kind of test: Antitubercular activity against Mycobacterium tuberculosis H37Rv ATCC 27294 assessed as growth inhibition at 6.25 ug/ml by microplate alamar blue assay relative to control. In kind it is functional.
The test system of test [31] is Mycobacterium tuberculosis. Briefly: Antitubercular activity against Mycobacterium tuberculosis H37Rv ATCC 27294 assessed as inhibition of [3H]-thymidine incorporation. In kind it is functional, organism-based.
Test [32] relates to Mycobacterium tuberculosis. Briefly: Antitubercular activity against Mycobacterium tuberculosis H37Rv ATCC 27294 assessed as inhibition of [3H]-thymidine incorporation relative to control. In kind it is functional.

As to `COc1cc(Cc2cnc(N)nc2N)cc(OC)c1Br` [BRODIMOPRIM], the Activity is recorded as 296 pg with Mycobacterium leprae [1]; 0 pmol in the test with Mycobacterium leprae [2]; 108 pg in the test with Mycobacterium leprae [3]; 109 pg with Mycobacterium leprae [4]; 0.88 pmol in the test on Mycobacterium leprae [5]; 1.1 pmol with Mycobacterium leprae [7]. In addition, the Activity was 0 pg in the test with Mycobacterium leprae [8]; 0.24 pmol in the test on Mycobacterium leprae [9]; 0 pg in the test on Mycobacterium leprae [10]; 0.27 pmol in the test with Mycobacterium leprae [11]; 0 pmol in the test on Mycobacterium leprae [12]; 346 pg in the test with Mycobacterium leprae [13]. Besides, the minimal inhibitory concentration (MIC) with Mycobacterium leprae [6] amounted to 0.025 µg/mL (≈ 0.0737 µM).

Consider `CO[C@H]1/C=C/O[C@@]2(C)Oc3c(C)c(O)c4c(=O)c(c5oc6cc(N7CCN(CC(C)C)CC7)cc(O)c6nc-5c4c3C2=O)NC(=O)/C(C)=C\C=C\[C@H](C)[C@H](O)[C@@H](C)[C@@H](O)[C@@H](C)[C@H](OC(C)=O)[C@@H]1C` [RIFALAZIL], for which the Activity in the test with Mycobacterium leprae [14] stood at 0 pmol; in the test on Mycobacterium leprae [15], 227 pg; with Mycobacterium leprae [16], 0 pmol; with Mycobacterium leprae [17], 0 pg; with Mycobacterium leprae [18], 0 pg; in the test with Mycobacterium leprae [19], 0 pg. For the same compound, the Activity with Mycobacterium leprae [20] is 0 pmol; in the test on Mycobacterium leprae [21], 0.73 pmol; with Mycobacterium leprae [22], 0 pmol; in the test on Mycobacterium leprae [23], 0 pg; in the test with Mycobacterium leprae [24] it was 0.72 pmol; with Mycobacterium leprae [25], 0 pmol. In addition, the Activity in the test with Mycobacterium leprae [26] came out at 211 pg; in the test with Mycobacterium leprae [27], 0 pg; with Mycobacterium leprae [28], 0 pg; in the test on Mycobacterium leprae [29] it was 0 pmol.

As for `OC[C@H]1O[C@@H](n2cnc3c(-c4ccccc4)ncnc32)[C@H](O)[C@@H]1O`, the inhibition at 6.25 µg/mL in test [30] turned out to be 14%. In addition, in test [31], the half-inhibitory concentration (IC50) is 0.4 µg/mL (≈ 1.22 µM). The “inhibition (INH)” value in [32] is reported as 99%.

`CCC(C)N1CCN(c2cc(O)c3nc4c5c6c7c(C)c(O)c5c(=O)c(c-4oc3c2)NC(=O)/C(C)=C\C=C\[C@H](C)[C@H](O)[C@@H](C)[C@@H](O)[C@@H](C)[C@H](OC(C)=O)[C@H](C)[C@@H](OC)/C=C/O[C@@](C)(O7)C6=O)CC1` (stereo in doubt; form 2): the Activity in the test with Mycobacterium leprae [14] is recorded as 1.28 pmol; in the test with Mycobacterium leprae [15] it was 298 pg; in the test on Mycobacterium leprae [16] it was 0.77 pmol; with Mycobacterium leprae [17], 221 pg; with Mycobacterium leprae [18], 0 pg; in the test on Mycobacterium leprae [19], 0 pg. The Activity in the test on Mycobacterium leprae [20] was found to be 0.76 pmol; in the test on Mycobacterium leprae [21] it was 0 pmol; in the test on Mycobacterium leprae [22] it was 0 pmol; with Mycobacterium leprae [23], 0 pg; in the test with Mycobacterium leprae [24] it was 0.298 pmol; in the test with Mycobacterium leprae [25], 0 pmol. The Activity in the test on Mycobacterium leprae [26] is reported as 363 pg; with Mycobacterium leprae [27] it was 0 pg; in the test on Mycobacterium leprae [28], 233 pg; in the test with Mycobacterium leprae [29], 0 pmol.
